Experimental data published in patent US11998600B2, “Enhancing the therapeutic activity of an immune checkpoint inhibitor” (MaineHealth, priority 2015, dated 2024).

Key:
[1] = system: chick chorioallantoic membrane (CAM); assay: Chick CAM angiogenesis assay, induction by RGD collagen peptides; format: in vivo; conditions: chick CAM
Description: (§1) The chick chorioallantoic membrane (CAM) assays were carried out with some modifications (19). For all experiments CAMs of 10-day-old chick embryos obtained from Charles River (North Franklin, CT) were separated from the shell membrane. Filter discs either non-treated (inflammation assays) pretreated (angiogenesis assays) with cortisone acetate (3.0 mg/ml) containing RPMI only or FGF-2 (40 ng). CAMs were either non-treated or treated topically with Mab XL313, XL166 or a non-specific control antibody (10 μg/embryo every 24 h for three consecutive treatments). […] At the end of the incubation period the embryos were sacrificed and the CAM tissues were analyzed. Angiogenesis was quantified by counting the number of angiogenic branching blood vessels within the area of the filter disc. The angiogenic index was determined by subtracting the mean number of blood vessel branch points from untreated CAMs from each experimental condition. Eight to twelve embryos were used per condition and experiments were repeated at least three times.
To examine this possibility, the effects of the RGDKGE (SEQ ID NO. 1) containing collagen peptide on angiogenesis and inflammation in the chick CAM were assessed.

[2] = system: chick chorioallantoic membrane (CAM); assay: Chick CAM inflammation assay, induction by RGD collagen peptides; format: in vivo; conditions: chick CAM, no cortisone acetate; FIG. 5D
Description: as §1
The effects of the soluble RGD containing collagen peptides on inflammation were examined.

P38MAPK = P38MAPK phosphorylation in HRMVEC attached to collagen peptides, Western blot; format: cell-based, human; conditions: cells attached to immobilized peptide; FIG. 6E
Description: (§2) Endothelial cells (HUVECs or HRMVECs) were incubated in serum free media with 1 mM MgCl2, 0.2 mM MnCl2 in the presence of a Src inhibitor, PP2, (10 μM) a P38MAPK inhibitor, SB202190 (10 μM) or vehicle only (DMSO) for 10 min at 37° C. Treated cells were then seeded on to immobilized P-1 and P-2 and lysates were collected at 15 min.
Whole cell and CAM tissue lysates were collected in RIPA buffer supplemented with 1× protease inhibitor and 1× phosphatase inhibitor and were run on polyacrylamide gels using denaturing conditions. Prior to loading the gels, 6× sample buffer was added to each of the lysates (final concentration 1×) and boiled for five minutes. Twenty to 50 μg of total protein were loaded into each lane. […] Gels were run at 60 volts (v) until the dye front passed through the stacking gel, and then the voltage was increased to 100V for the remainder of the separation. Precision Plus protein standards (Bio-Rad) were used to visualize migration. Protein was transferred to nitrocellulose membranes using a wet tank system and blocked for 1 h using 10% non-fat dried milk in tris-buffered saline with 0.01% Tween-20 (TBS-T). […] Membranes were washed 3 times in TBS-T for five minutes. Blots were then incubated with HRP conjugated secondary antibodies (1:15000) in 1% non-fat milk in TBS-T for 1 h. […] Western blot bands were quantified using Image J software based on pixel intensity.

β3-integrin = β3-integrin phosphorylation in endothelial cells attached to collagen peptides, Western blot; format: cell-based, human; conditions: HUVEC, absence of growth factors; FIG. 7C
Description: as §2
(§3) Whole cell and CAM tissue lysates were collected in RIPA buffer supplemented with 1× protease inhibitor and 1× phosphatase inhibitor and were run on polyacrylamide gels using denaturing conditions. Prior to loading the gels, 6× sample buffer was added to each of the lysates (final concentration 1×) and boiled for five minutes. Twenty to 50 μg of total protein were loaded into each lane. For detection of proteins larger than 50 kD, 10% gels were used; for proteins smaller than 50 kD 15% gels were used. […] Western blot bands were quantified using Image J software based on pixel intensity.
(§4) Because both RGD containing peptides bind αvβ3 coupled with the differential effect of these peptides on angiogenesis and inflammation, it was determined whether the RGD peptides differentially altered αvβ3-mediated signaling. […] Therefore, the differential phosphorylation of these protein kinases following the early mechanical-mediated interactions with the RGD containing collagen peptides was assessed. […]

Fak = Fak phosphorylation in endothelial cells attached to collagen peptides; format: cell-based, human; conditions: serum free conditions
Description: as §3, with “used. Gels were run at 60 volts (v) until the dye front passed through the stacking gel, and then the voltage was increased to 100V for the remainder of the separation. Precision Plus protein standards (Bio-Rad) were used to visualize migration.” for “used.”
as §4

YAP = assay: Nuclear YAP in HUVECs attached to collagen peptides; format: cell-based, human
Description: Whole cell and CAM tissue lysates were collected in RIPA buffer supplemented with 1× protease inhibitor and 1× phosphatase inhibitor and were run on polyacrylamide gels using denaturing conditions. Prior to loading the gels, 6× sample buffer was added to each of the lysates (final concentration 1×) and boiled for five minutes. Twenty to 50 μg of total protein were loaded into each lane. […] Gels were run at 60 volts (v) until the dye front passed through the stacking gel, and then the voltage was increased to 100V for the remainder of the separation. Precision Plus protein standards (Bio-Rad) were used to visualize migration. Protein was transferred to nitrocellulose membranes using a wet tank system and blocked for 1 h using 10% non-fat dried milk in tris-buffered saline with 0.01% Tween-20 (TBS-T). […] Membranes were washed 3 times in TBS-T for five minutes. Blots were then incubated with HRP conjugated secondary antibodies (1:15000) in 1% non-fat milk in TBS-T for 1 h. Membranes were washed a second time as indicated above and exposed to chemiluminecent substrate for three minutes prior to exposure to autoradiography film in a dark room. Western blot bands were quantified using Image J software based on pixel intensity.

HUVEC = assay: Cell proliferation assay, HUVEC; format: cell-based, human; conditions: peptide 100 ng/ml, 24 hours; FIG. 8C
Description: (§5) HUVECs (WT, shYAP1 or control transfected) or HRMVECs were plated at 2,000 cells per well with complete EGM-2 media containing 2.0% FBS in the absence or presence of P-1, P-2 or P-C (100 ng/ml) and allowed to grow for 24 hours. Cell growth was monitored using a BrdU or MMT assay kits according to manufacturer's instructions. All assays were completed at least three times in triplicate wells.

HRMVEC = assay: Cell proliferation assay, HRMVEC; format: cell-based, human; conditions: peptide 100 ng/ml, 24 hours; FIG. 8D
Description: as §5

Sequence: QGPRGDKGE [Mab P-2]
- dose dependent induction of CAM angiogenesis ([1]; FIG. 5B): dose dependently enhanced angiogenesis
- dose of maximum induction of angiogenesis ([1]; FIG. 5B): 100 ng/CAM
- induction of CAM angiogenesis as compared to no treatment ([1]; peptides 100 ng/ml, FIG. 5C): significantly (P>0.05) induced angiogenesis
- CAM inflammation following stimulation with peptide [2]: significantly (P<0.05) induced inflammation to nearly that of FGF-2 stimulation
- phosphorylation of P38MAPK in HRMVEC, P-2 as compared to P-1 (P38MAPK): enhanced phosphorylation of P38MAPK
- increase of β3 phosphorylation, P-2 as compared to P-1 (β3-integrin): over 3 fold
- Fak phosphorylation following ligation of peptide (Fak): Minimal Fak phosphorylation
- nuclear localized YAP (immunofluorescence), P-2 as compared to P-1 (YAP; 15 minutes after binding, no growth factor, FIG. 8A): enhanced level of nuclear localized YAP
- increase of nuclear YAP levels (Western blot), P-2 as compared to P-1 (YAP; nuclear fractions of HUVEC lysates, FIG. 8B): approximately 2 fold
- HUVEC growth with soluble peptide (HUVEC): significantly (P<0.05) enhanced endothelial cell growth
- HRMVEC growth with soluble peptide (HRMVEC): significantly (P<0.05) enhanced endothelial cell growth
